This passage reports cell proliferation response results from US20200032347A1, “RNA profiling for individualized diet and treatment advice” (Stichting Katholieke Universiteit, priority 2017, published 2020).

In assay [1] the test system is SKRC-7 cells. In words: Cell proliferation assay (SRB, cellular protein content). It counts as cell-based, human. As to conditions: proliferation assays. As to the method:
(§1) Cellular protein content was determined as a measure of cell proliferation, using suforhodamine B (SRB) assays as described in (83). Sensitivity to EGCG was determined by adding a concentration range of EGCG (0-50 μM) or DMSO solvent one day after seeding 1,000 cells per well in 96-wells plates (Nunc, Roskilde, Denmark). An SRB assay was performed after 3 days, and IC50 values were determined in GraphPad Prism using the sigmoidal dose response with variable slope nonlinear regression analysis.
(§2) Furthermore cell proliferation over 8 days in presence or absence of EGCG was determined. Cells were seeded at 1,000 cells per well and at day 1 and day 5 after seeding the medium was changed for medium with or without 10 μM EGCG. Controls were incubated with DMSO. Protein content was determined every 2 days. Experiments were performed in triplicate and statistical significance was determined using one-way ANOVA with bonferroni correction.

In assay [2] the test system is SKRC-17 cells. The assay is described as above. It counts as cell-based, human. The conditions noted are these: proliferation assays. How it is done:
as §1, §2

`NC(=O)c1ccc(N)nc1` [Compound 6-AN, 6-aminonicotinamide]: the cell proliferation response entry is “increase of cell proliferation” in assay [1] and “significantly decreased cell proliferation” in assay [2].
